Assay results: patent US9540615B2, “Combined chemical and genetic approaches for generation of induced pluripotent stem cells” (The Scripps Research Institute, priority 2008, dated 2017)

Experiments:
mES R1 cells = assay: Proliferation assay; assay type: cell-based, mouse; conditions: 2 μM BayK, 1 μM BIX or both; 15, 24 and 48 hours; compared to DMSO, n=3
Protocol: mES R1 cells were plated onto gelatin-coated 6-well plates at a density of 2×10^5 cells/well in complete mES cell media. Upon cell attachment, app. 12 hours, the cells were treated either with DMSO, 1 μM BIX, 2 μM BayK, and a combination of both, in triplicate. At 15, 24 and 48 hours, the cells were detached using trypsin, and counted using a hemocytometer. Trypan blue (Sigma-Aldrich, St. Louis, Mo.) was used for dead cell exclusion.

[1] = system: primary OG2 neural progenitor cells; assay: iPS cell induction from neural progenitor cells by retroviral transduction and BIX01294 treatment; assay type: cell-based, mouse
Protocol: The reporter neural progenitor cells were generated using a well established protocol by differentiating the Oct4-GiP mESCs grown in monolayer on gelatin in a chemically defined medium/CDM condition in the absence of serum and other growth factors/cytokines at low cell density for eight days, followed by neurophere formation and subsequent serial passaging in single cells in neural cell expansion media supplemented with 10 ng/ml of bFGF and EGF in monolayer for over six passages/24 days. The resulting neural progenitor cells were homogenous by cell morphology and neural marker expression, and were confirmed to be GFP negative and puromycin sensitive. Such neural progenitor cells plated in monolayer in conventional mESC growth media were transduced with combinations of four, three, or two of the four factors, followed by treating the transduced cells with individual small molecules from a small known drug collection in a typical 6-well format. The compound treatment and culture were continued for additional ten days before puromycin was added. The number of green and puro-resistant colonies was counted at day 14. In comparison to the only four-gene transduced neural cells as the positive control, compound conditions that generated more green colonies than the corresponding gene-only conditions were picked as primary hits. To further confirm these primary hit conditions, we chose to use a late passage of mouse CNS neural progenitor cells (Do, J. T. et al., Stem Cells 25, 1013-1020 (2007)) that were derived from fetal brain of OG2^+/−/ROSA26^+/− transgenic mice (which contain an Oct4-GFP reporter) and expanded in monolayer under the same neural CDM condition as the above with 10 ng/ml of bFGF and EGF. Such cells truly from a non-pluripotent tissue would be devoid of concerns of any contaminating ES cell in the above screening system, which is although highly unlikely with all appropriate controls. Similar culture conditions and reprogramming assays were performed using the OG2 neural progenitor cells except that puromycin was not used and green colonies were picked out and characterized by staining of Nanog, SSEA1 and ALP.
mESC-derived or primary OG2 mouse neural progenitor cells were plated into Matrigel (1:50, BD Biosciences) coated 6-well plates at 3.5×10^4 cells/well in the neural progenitor cell expansion media. After one day these cells were transduced with retrovirus for overnight, and the medium was changed into the mESC growth media [DMEM, 5% FBS, 10% KSR, 1× non-essential amino acids (Gibco), 2 mM L-glutamine (Gibco), 0.1 mM β-mercaptoethanol (Gibco) and 10^3 unit/ml LIF (Chemicon)] with or without BIX01294 (0.5-1 μM). GFP-positive iPS cell colonies appeared after 9-14 days, and were picked out and expanded on MEF feeder cells with the mESC growth media.

COc1cc2nc(N3CCCN(C)CC3)nc(NC3CCN(Cc4ccccc4)CC3)c2cc1OC [BIX01294]
proliferation of mES cells (cell number) (mES R1 cells): No significant difference | reprogramming efficiency ([1]; Klf4/Sox2/cMyc with BIX01294, absence of Oct4 expression): relatively low | kinetics of reprogramming ([1]; Oct4/Klf4 viral transduction, BIX01294 0.5-1 μM): didn't significantly shorten the kinetics of reprogramming | reprogramming efficiency (GFP+ iPS cell colonies) ([1]; Oct4/Klf4 viral transduction, BIX01294 0.5-1 μM, 3.5×10^4 cells/well): significantly improve the reprogramming efficiency to or higher than the level of using viral transduction of all four factors | time until GFP+ iPS cell colonies appeared ([1]; after transduction with Oct4/Klf4 retroviruses and BIX01294 treatment): 12 days | generation of iPS cells ([1]; viral transduction of Klf4, Sox2 and cMyc, absence of Oct4 expression, three factors alone gave no colony): can also generate iPS cells
